ChEMBL document CHEMBL3430912, “GSK Tres Cantos Anti-Kinetoplastid Screening (TCAKS) Data”

Tests used:
Trypanosoma cruzi [1] = test: GSK_TCAKS: pIC50 Trypanosoma cruzi viability assay using beta-GAL activity. This assay was run at single shot at 5uM compound concentration per well. The biological reagents consisted of NIH-3T3 host cells and trypomastigotes parasitic cells; both cell types were set to a 3.3 * 10^5 cells/mL dilution in assay DMEM by means of a CASY cell counter device using a 60um capillary. 6 uL of the mixture were dispensed per well (about 1 * 10^3 host-cells and 1 * 10^3 parasites) with a Multidrop Combi dispenser. […] In all wells, the percentage of DMSO never exceeded 0.5%. Plates incubated for four days at 37C, 5% CO2. The substrate used for the assay fluorescence intensity (FLINT) readout was resorufin-beta-D-galactopiranoside (Sigma-Aldrich) at 5uM per well. It was diluted in PBS supplemented with the soft detergent Igepal (Fluka).; type: functional, organism-based, Mus musculus; settings: Tulahuen, NIH3T3
Trypanosoma cruzi [2] = test: (§1) GSK_TCAKS: pIC50 Trypanosoma cruzi Imaging: Infected Cells. […] Cells were then washed once with PBS before infection. T. cruzi trypomastigotes, collected at days 5 to 8 after infection from LLC-MK2 parasite infected cultures, were allowed to swim out for 4h at 37C from a centrifuged pellet (2,500 rpm/10 min/room temperature). Trypomastigotes were then collected and counted in a CASY Cell Counter. Trypomastigotes, in supplemented DMEM, were added to H9c2 cultures in a multiplicity of infection of 1 and incubated for 18 h. Cells were washed once with PBS before incubation of the infected H9c2 monolayer with trypsin (Life-Technologies) to detach cells from the flask. Cells were counted in a CASY Cell Counter using a 150 um capillary and their density set at 5 * 10^4 cells per mL in supplemented assay DMEM. Infected H9c2 were dispensed into 384-well poly-lysine coated assay plates at 50uL per well using a Multidrop Combi dispenser. After seeding them, the plates were incubated at 37C, 5% CO2 for 72h. Cultures were then fixed and stained by addition of 50 uL of a solution containing 8% formaldehyde and 4 uM DRAQ5 DNA dye (BioStatus, UK) per well. […] Five images were collected per well for reliable statistical analysis. Automated image analysis was performed with a script developed on Acapella High Content Imaging and Analysis Software (PerkinElmer). Output: percentage of infected cells per well as a second infection marker.; type: functional, organism-based, Rattus norvegicus; settings: H9c2, 4 h
Trypanosoma cruzi [3] = test: GSK_TCAKS: pIC50 Trypanosoma cruzi Imaging: Amastigotes/Cell. […] Cells were then washed once with PBS before infection. T. cruzi trypomastigotes, collected at days 5 to 8 after infection from LLC-MK2 parasite infected cultures, were allowed to swim out for 4h at 37C from a centrifuged pellet (2,500 rpm/10 min/room temperature). Trypomastigotes were then collected and counted in a CASY Cell Counter. Trypomastigotes, in supplemented DMEM, were added to H9c2 cultures in a multiplicity of infection of 1 and incubated for 18 h. Cells were washed once with PBS before incubation of the infected H9c2 monolayer with trypsin (Life-Technologies) to detach cells from the flask. Cells were counted in a CASY Cell Counter using a 150 um capillary and their density set at 5 * 10^4 cells per mL in supplemented assay DMEM. Infected H9c2 were dispensed into 384-well poly-lysine coated assay plates at 50uL per well using a Multidrop Combi dispenser. After seeding them, the plates were incubated at 37C, 5% CO2 for 72h. Cultures were then fixed and stained by addition of 50 uL of a solution containing 8% formaldehyde and 4 uM DRAQ5 DNA dye (BioStatus, UK) per well. […] Five images were collected per well for reliable statistical analysis. Automated image analysis was performed with a script developed on Acapella High Content Imaging and Analysis Software (PerkinElmer). Output: number of amastigotes per cell as infection level measurement.; type: functional, organism-based, Rattus norvegicus; settings: H9c2, 4 h
Trypanosoma cruzi [4] = test: as §1, with “H2C9” for “Trypanosoma cruzi”, “H9c2 Host Cardiomyocytes.” for “Infected Cells.”, “Number” for “percentage”, “H9c2 Host Cardiomyocytes nuclei to determine drug-related cytotoxicity.” for “infected cells per well as a second infection marker.”; type: functional, organism-based, Rattus norvegicus; settings: H9c2, 4 h
Leishmania donovani [5] = test: GSK_TCAKS: pIC50 Leishmania donovani viability assay using fluorescence intensity. Assay plates (1536-well) were prepared by adding 30nL per well of compound. For single shot assay, the final compound concentration was 5uM. […] Briefly, eGFP LdBOB axenic amastigotes were harvested, fixed and counted in a CASY cell counter (Roche-Applied Science). A final concentration of 1.5 * 10^5 cells per well were prepared in amastigote media containing 500 U/mL penicillin/streptomycin (Invitrogen) and 6uL was dispensed to each experimental well using a Multidrop Combi dispenser (Thermo Scientific). 6uL of assay media was dispensed to control columns used as reference for 100% compound response. Following incubation for 72 h at 37C, 5% CO2, 2 uL of resazurin was added to each well at a final concentration of 0.5 mM in phosphate buffered saline (PBS) with IGEPAL (Sigma-Aldrich), 0.05% (v/v).; type: functional, organism-based
Leishmania donovani [6] = test: (§2) GSK_TCAKS: pIC50 Leishmania donovani Imaging: Infected Macrophages. Assay plates (384-well) were prepared by adding 250nL of compound to each well. For single shot assay, the final compound concentration was 5 uM. […] Automated image analysis was performed with a script developed on Acapella High Content Imaging and Analysis Software (PerkinElmer). Output: Percent of infected macrophage cells were reported for each well.; type: functional, organism-based, Homo sapiens; settings: THP-1
Leishmania donovani [7] = test: as §2, with “Amastigotes/Macrophages.” for “Infected Macrophages.”, “Average number” for “Percent”, “amastigotes per” for “infected”, “cell” for “cells”; type: functional, organism-based, Homo sapiens; settings: THP-1
Leishmania donovani [8] = test: as §2, with “THP-1 Host” for “Infected”, “THP-1 cell count” for “Percent of infected macrophage cells”; type: functional, organism-based, Homo sapiens
[9] = test system: Trypanosoma brucei brucei; test: GSK_TCAKS: pIC50 Trypanosoma brucei viability assay using fluorescence intensity. Assay plates (1536-well) were prepared by dispensing 25nL of compound solution per well using an Echo acoustic dispenser (Labcyte).; type: functional, organism-based; settings: Lister 427, 2 h
[10] = test system: Trypanosoma brucei brucei; test: GSK_TCAKS: pIC50 Trypanosoma brucei viability assay using luminiscence. Assay plates (1536-well) were prepared. T. brucei cultures were harvested and counted in a CASY cell counter. A parasite suspension was prepared at a final concentration of 5 * 10^4 cells/mL in complete HMI9 medium and 6uL was dispensed to all wells containing compounds using a Multidrop Combi dispenser. 6uL of HMI9 media with 0.4% DMSO were dispensed to control columns. Plates were incubated for 24 h at 37C, 5% CO2 then tempered for 10 min at room temperature. ATP content was quantified by adding 4 uL of CellTiter-Glo Reagent (Promega) according to the manufacturer's instructions. Luminescence was measured using a ViewLux.; type: functional, organism-based; settings: Lister 427, CASY
[11] = GSK_TCAKS: pIC50 HepG2 human cell line viability assay using luminiscence. […] Seeding density was checked to ensure that new mono-layers were not more than 50% confluent at the time of harvesting. Cell suspension was added to 500 mL of the same medium at a final density of 1.2 * 10^5 cells/mL. This cell suspension was dispensed (25 uL, 3000 cells per well) into 384-well clear-bottom plates using a Multidrop Combi dispenser. Prior to addition of the cell suspension, the screening compounds (250 nL) were pre-dispensed into the plates with an Echo liquid handler. Plates were incubated for 48 h at 37C, 5% CO2. After incubation, plates equilibrated at room temperature for 30 min before proceeding to develop the luminescent signal. The signal developer, CellTiter-Glo Reagent, was allowed to equilibrate at room temperature for 30 min and added to the plates (25uL per well) using a Multidrop Combi dispenser. Plates were left for 10 min at room temperature for stabilization and then read using a ViewLux.; type: toxicity, cell-based
NIH3T3 = test: GSK_TCAKS: pIC50 NIH 3T3 cell line viability assay using luminiscence. Tissue culture surface treated assay plates (1536-well) were used. […] The 100% cells survival control was determined exposing the host-cells to a 0.5% DMSO concentration, whereas the 100% toxicity control was achieved by seeding the cells in presence of Amphotericin B at 50uM. Plates were incubated for four days at 37C, 5% CO2. The assay readout was developed by addition of 5uL of CellTiter-Glo Reagent following the manufacturer's instructions. Luminiscence was measured using a ViewLux.; type: functional, cell-based; settings: Mus musculus, NIH3T3, 96 h
[12] = biological target: Sterol 14-alpha demethylase (Trypanosoma cruzi (strain CL Brener), UniProt Q7Z1V1); test: GSK_TCAKS: pIC50 CYP51 from Trypanosoma cruzi.; type: functional
Sequence of Sterol 14-alpha demethylase (Q7Z1V1 whole entry): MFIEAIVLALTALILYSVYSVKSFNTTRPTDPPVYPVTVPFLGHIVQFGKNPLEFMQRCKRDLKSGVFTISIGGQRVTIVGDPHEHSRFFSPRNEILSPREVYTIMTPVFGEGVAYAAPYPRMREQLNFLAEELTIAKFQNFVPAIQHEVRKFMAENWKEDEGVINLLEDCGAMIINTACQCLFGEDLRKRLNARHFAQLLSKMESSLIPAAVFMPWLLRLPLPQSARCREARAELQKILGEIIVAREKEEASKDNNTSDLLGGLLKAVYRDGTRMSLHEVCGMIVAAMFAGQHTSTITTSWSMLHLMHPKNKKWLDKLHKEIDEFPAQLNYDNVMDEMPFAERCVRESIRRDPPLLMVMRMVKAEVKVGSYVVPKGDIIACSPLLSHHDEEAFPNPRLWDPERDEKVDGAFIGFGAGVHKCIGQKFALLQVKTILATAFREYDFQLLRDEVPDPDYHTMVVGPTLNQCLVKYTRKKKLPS

Row | SMILES | IC50 (Trypanosoma cruzi [1]) | IC50 (Trypanosoma cruzi [2]) | IC50 (Trypanosoma cruzi [3]) | IC50 (Trypanosoma cruzi [4]) | IC50 (Leishmania donovani [5]) | IC50 (Leishmania donovani [6]) | IC50 (Leishmania donovani [7]) | IC50 (Leishmania donovani [8]) | IC50 [9] | IC50 [10] | IC50 at 48 h [11] | IC50 (NIH3T3) | IC50 [12]
1 | O=C(NCC(c1cccnc1)N1CCc2ccccc2C1)C(=O)Nc1cccc(Cl)c1 (stereo unspecified) | 0.2 µM | 0.0794 µM | 0.0631 µM | 25.1 µM | 1.26 µM | > 50.1 µM | > 50.1 µM | > 50.1 µM | 15.8 µM | 20 µM | > 100 µM | 25.1 µM | 0.0631 µM
2 | COc1ccccc1C=CCN1C[C@H]2CCC[C@@H](C1)C2(O)c1cccnc1 (stereo partly specified) | 0.0501 µM | 0.0398 µM | 0.0398 µM | > 50.1 µM | > 50.1 µM | > 50.1 µM | 31.6 µM | 39.8 µM | > 39.8 µM | > 39.8 µM | > 100 µM | 31.6 µM | 0.126 µM
3 | COc1ccc(C(=O)Nc2cc(C(F)(F)F)ccc2N2CCOCC2)c(OC)c1 | 1 µM | 0.794 µM | 0.316 µM | > 50.1 µM | 5.01 µM | 10 µM | 7.94 µM | 12.6 µM | 10 µM | 25.1 µM | > 100 µM | 31.6 µM | > 100 µM
4 | COc1ccc(NS(=O)(=O)c2cc(NC(=O)Cc3ccc(C)cc3)ccc2N2CCOCC2)cc1 | 2 µM | 5.01 µM | 2.51 µM | > 50.1 µM | 39.8 µM | > 50.1 µM | > 50.1 µM | > 50.1 µM | 5.01 µM | 7.94 µM | > 100 µM | 25.1 µM | > 100 µM
5 | NC(=O)c1ccccc1Nc1nc(NC2CCCCC2)nc2[nH]ccc12 | 1 µM | 1 µM | 1 µM | 25.1 µM | 20 µM | 12.6 µM | 12.6 µM | 10 µM | 0.501 µM | 10 µM | 20 µM | 25.1 µM | > 100 µM
6 | CCCCn1nnnc1CSc1nc(C)cc(C)c1C#N | 0.316 µM | 0.2 µM | 0.1 µM | > 50.1 µM | 1.26 µM | 3.98 µM | 3.16 µM | > 50.1 µM | > 39.8 µM | > 39.8 µM | > 100 µM | > 50.1 µM | 50.1 µM
7 | O=C(CSc1ccc(F)cc1)N[C@@H](Cc1c[nH]cn1)C(=O)NCCc1ccccc1 | 0.447 µM | 0.501 µM | 0.501 µM | > 50.1 µM | > 50.1 µM | > 50.1 µM | > 50.1 µM | > 50.1 µM | > 39.8 µM | > 39.8 µM | > 100 µM | 12.6 µM | 0.0794 µM
